Legend:
[1] = molecular target: T1, UDP-glucuronosyltransferase 1A1 (Homo sapiens, UniProt P22309); assay: Drug metabolism assessed as human recombinant UGT1A1-mediated compound formation treated with AMG 853 after 45 mins by LC-MS/MS analysis in presence of UDPGA; format: ADME; conditions: recombinant enzyme, 0.75 h
T1 sequence (P22309 whole entry): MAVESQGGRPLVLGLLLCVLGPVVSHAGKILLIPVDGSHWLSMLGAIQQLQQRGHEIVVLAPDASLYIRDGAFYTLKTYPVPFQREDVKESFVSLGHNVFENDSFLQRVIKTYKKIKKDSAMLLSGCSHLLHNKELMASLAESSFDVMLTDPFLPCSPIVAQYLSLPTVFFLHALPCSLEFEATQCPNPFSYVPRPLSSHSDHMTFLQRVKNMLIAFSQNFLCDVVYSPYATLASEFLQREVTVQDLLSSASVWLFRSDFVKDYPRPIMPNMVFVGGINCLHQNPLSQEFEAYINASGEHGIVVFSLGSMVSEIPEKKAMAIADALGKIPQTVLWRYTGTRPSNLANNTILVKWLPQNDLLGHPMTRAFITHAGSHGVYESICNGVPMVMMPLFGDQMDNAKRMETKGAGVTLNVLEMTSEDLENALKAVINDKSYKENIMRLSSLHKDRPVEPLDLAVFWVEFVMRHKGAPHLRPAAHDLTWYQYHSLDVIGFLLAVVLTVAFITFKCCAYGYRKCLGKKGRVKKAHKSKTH

[2] = molecular target: T1, UDP-glucuronosyltransferase 1A1; assay: Drug metabolism assessed as human recombinant UGT1A1-mediated compound formation treated with AMG 853 at 10 uM after 30 mins by LC-MS/MS analysis; format: ADME; conditions: recombinant enzyme, 0.5 h
CYP1A2 = assay: Upregulation of CYP1A2 mRNA expression in human hepatocytes at 0.3 to 30 uM treated every 24 hrs for 2 days measured on day 5 relative to control; format: ADME, cell-based, Hepatocyte; conditions: read-out: FC
Cytochrome P450 3A5 [3] = molecular target: T2, Cytochrome P450 3A5 (Homo sapiens, UniProt P20815); assay: Drug metabolism assessed as recombinant CYP3A5 (unknown origin)-mediated 2-(5-chloro-4-(2-(2-chloro-4-cyclopropylphenylsulfonamido)-4-(1-hydroxy-2-methylpropan-2-ylcarbamoyl)phenoxy)-2-fluorophenyl)acetic acid formation at 10 uM after 30 mins by LC-MS/MS analysis; format: ADME; conditions: recombinant enzyme, 0.5 h
T2 sequence (P20815 whole entry): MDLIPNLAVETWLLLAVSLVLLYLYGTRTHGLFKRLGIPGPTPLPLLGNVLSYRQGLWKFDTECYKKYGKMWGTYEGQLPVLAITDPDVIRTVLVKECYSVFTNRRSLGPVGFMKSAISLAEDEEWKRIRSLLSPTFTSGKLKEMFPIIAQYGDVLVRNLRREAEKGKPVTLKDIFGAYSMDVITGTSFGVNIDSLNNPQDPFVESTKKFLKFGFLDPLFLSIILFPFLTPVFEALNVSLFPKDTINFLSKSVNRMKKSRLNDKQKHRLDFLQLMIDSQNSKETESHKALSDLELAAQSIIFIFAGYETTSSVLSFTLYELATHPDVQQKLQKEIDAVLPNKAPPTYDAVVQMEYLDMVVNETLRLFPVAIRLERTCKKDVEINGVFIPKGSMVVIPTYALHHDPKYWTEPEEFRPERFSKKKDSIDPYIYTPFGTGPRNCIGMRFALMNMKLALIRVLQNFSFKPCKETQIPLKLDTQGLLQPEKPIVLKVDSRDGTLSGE

Cytochrome P450 2C8 = molecular target: T3, Cytochrome P450 2C8 (Homo sapiens, UniProt P10632); assay: Competitive inhibition of CYP2C8 in human liver microsomes assessed as paclitaxel 6-hydroxylation after 20 mins by LC-MS/MS analysis; format: ADME
T3 sequence (P10632 whole entry): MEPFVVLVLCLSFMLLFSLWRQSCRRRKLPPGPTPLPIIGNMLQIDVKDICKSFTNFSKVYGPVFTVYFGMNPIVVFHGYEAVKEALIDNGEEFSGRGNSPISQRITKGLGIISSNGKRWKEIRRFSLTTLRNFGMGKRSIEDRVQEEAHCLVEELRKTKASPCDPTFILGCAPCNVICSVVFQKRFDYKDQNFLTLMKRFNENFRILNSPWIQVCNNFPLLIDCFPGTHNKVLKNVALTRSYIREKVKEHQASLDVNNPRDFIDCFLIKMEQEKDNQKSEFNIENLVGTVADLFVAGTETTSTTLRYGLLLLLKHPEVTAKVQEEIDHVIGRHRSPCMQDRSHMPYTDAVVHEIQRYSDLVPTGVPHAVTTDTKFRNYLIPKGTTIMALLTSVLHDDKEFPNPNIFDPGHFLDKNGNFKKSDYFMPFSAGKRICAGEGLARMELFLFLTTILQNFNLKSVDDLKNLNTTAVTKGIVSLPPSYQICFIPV

CYP2B6 = CYP2B6 (Homo sapiens, UniProt P20813); assay: Induction of CYP2B6 in human hepatocytes using bupropion as substrate at 0.3 to 30 uM treated every 24 hrs for 2 days measured on day 5 by LC-MS/MS analysis relative to control; format: ADME, cell-based, Hepatocyte; conditions: probe bupropion, read-out: FC
CYP2B6, sequence (P20813 whole entry): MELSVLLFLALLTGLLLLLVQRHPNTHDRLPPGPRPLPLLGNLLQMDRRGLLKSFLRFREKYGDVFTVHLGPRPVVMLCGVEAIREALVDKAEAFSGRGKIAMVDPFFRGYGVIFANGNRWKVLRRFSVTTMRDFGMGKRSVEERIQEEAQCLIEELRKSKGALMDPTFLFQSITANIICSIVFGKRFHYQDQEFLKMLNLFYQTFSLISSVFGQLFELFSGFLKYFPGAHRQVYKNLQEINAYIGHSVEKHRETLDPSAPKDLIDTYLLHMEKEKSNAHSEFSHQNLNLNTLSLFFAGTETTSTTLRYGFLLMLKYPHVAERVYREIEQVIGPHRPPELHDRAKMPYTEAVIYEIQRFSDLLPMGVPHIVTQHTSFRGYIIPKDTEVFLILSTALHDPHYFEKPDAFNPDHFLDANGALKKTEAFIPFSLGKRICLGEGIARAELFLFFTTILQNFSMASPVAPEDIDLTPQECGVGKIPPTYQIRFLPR

[4] = molecular target: UDP-glucuronosyltransferase 2B4 (Homo sapiens, UniProt P06133); assay: (§1) Drug metabolism assessed as human recombinant UGT2B4-mediated (2S,3S,4S,5R,6S)-6-(2-(4-(4-(tert-butylcarbamoyl)-2-(2-chloro-4-cyclopropylphenylsulfonamido)phenoxy)-5-chloro-2-fluorophenyl)acetoxy)-3,4,5-trihydroxytetrahydro-2H-pyran-2-carboxylic acid formation at 10 uM after 30 mins by LC-MS/MS analysis; format: ADME; conditions: recombinant enzyme, 0.5 h
UDP-glucuronosyltransferase 2B4, sequence (P06133 whole entry): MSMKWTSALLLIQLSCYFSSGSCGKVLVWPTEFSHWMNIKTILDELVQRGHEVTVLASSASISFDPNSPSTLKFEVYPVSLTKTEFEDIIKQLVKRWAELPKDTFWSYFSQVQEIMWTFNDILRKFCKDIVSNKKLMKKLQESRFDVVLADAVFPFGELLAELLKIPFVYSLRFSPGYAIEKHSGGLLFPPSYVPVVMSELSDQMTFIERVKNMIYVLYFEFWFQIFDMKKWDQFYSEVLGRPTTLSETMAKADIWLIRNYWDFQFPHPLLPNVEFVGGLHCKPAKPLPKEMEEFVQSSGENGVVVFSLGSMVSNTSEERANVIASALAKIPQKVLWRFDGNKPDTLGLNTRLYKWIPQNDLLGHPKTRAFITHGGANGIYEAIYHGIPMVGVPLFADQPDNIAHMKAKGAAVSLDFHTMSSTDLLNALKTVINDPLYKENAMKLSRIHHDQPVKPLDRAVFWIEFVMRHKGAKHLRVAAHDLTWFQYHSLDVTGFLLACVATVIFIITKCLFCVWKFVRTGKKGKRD

[5] = molecular target: T4, UDP-glucuronosyltransferase 2B7 (Homo sapiens, UniProt P16662); assay: as §1, with “UGT2B7-mediated” for “UGT2B4-mediated”; format: ADME; conditions: recombinant enzyme, 0.5 h
T4 sequence (P16662 whole entry): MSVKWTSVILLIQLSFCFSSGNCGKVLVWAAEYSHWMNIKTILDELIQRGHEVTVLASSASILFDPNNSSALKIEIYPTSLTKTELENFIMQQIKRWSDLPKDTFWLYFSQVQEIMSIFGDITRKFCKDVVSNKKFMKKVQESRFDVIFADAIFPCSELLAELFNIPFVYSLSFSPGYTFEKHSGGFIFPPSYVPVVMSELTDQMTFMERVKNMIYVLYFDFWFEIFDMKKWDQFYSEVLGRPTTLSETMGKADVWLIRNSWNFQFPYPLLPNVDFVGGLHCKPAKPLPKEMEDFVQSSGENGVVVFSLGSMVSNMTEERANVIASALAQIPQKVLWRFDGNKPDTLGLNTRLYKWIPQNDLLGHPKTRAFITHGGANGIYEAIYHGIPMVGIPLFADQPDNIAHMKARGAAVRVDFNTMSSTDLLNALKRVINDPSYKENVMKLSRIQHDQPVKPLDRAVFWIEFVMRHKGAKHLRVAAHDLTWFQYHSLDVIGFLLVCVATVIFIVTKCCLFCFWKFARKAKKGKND

[6] = molecular target: UDP-glucuronosyltransferase 1A4 (Homo sapiens, UniProt P22310); assay: as §1, with “UGT1A4-mediated” for “UGT2B4-mediated”; format: ADME; conditions: recombinant enzyme, 0.5 h
UDP-glucuronosyltransferase 1A4, sequence (P22310 whole entry): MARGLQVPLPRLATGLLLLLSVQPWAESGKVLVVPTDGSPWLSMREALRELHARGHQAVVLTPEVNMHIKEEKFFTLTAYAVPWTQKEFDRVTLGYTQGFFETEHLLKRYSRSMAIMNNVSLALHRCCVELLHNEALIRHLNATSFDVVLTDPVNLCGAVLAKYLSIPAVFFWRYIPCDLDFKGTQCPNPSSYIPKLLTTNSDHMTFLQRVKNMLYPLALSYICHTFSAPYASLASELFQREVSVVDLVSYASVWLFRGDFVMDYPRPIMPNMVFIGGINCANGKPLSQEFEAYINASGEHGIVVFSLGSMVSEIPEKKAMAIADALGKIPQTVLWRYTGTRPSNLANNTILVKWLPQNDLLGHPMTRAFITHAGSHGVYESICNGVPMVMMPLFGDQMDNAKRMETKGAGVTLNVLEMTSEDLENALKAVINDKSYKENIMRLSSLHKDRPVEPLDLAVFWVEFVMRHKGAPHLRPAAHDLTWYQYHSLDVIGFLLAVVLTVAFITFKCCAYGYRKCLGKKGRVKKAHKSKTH

Cytochrome P450 3A4 = Cytochrome P450 3A4 (Homo sapiens, UniProt P08684); assay: Drug metabolism assessed as recombinant CYP3A4 (unknown origin)-mediated 2-(4-(4-(tert-butylcarbamoyl)-2-(2-chloro-4-(1-hydroxycyclopropyl)phenylsulfonamido)phenoxy)-5-chloro-2-fluorophenyl)acetic acid formation at 10 uM after 30 mins by LC-MS/MS analysis; format: ADME; conditions: recombinant enzyme, 0.5 h
Cytochrome P450 3A4, sequence (P08684 whole entry): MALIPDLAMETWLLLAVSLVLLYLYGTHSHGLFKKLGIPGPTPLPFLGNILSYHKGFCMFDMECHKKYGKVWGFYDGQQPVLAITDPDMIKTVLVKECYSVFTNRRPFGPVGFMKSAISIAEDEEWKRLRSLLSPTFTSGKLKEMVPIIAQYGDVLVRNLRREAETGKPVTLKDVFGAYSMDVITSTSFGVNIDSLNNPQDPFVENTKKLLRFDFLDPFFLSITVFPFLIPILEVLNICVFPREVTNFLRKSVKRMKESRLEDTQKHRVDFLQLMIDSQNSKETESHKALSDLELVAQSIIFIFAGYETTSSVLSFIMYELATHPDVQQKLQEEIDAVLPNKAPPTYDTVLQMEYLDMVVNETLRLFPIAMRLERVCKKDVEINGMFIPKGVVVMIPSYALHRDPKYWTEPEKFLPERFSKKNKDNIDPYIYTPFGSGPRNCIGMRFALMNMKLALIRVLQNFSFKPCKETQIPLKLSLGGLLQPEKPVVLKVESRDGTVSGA

Liver microsome = assay: Drug metabolism in human liver microsomes assessed as 2-(4-(4-(tert-butylcarbamoyl)-2-(2-chloro-4-(1-hydroxycyclopropyl)phenylsulfonamido)phenoxy)-5-chloro-2-fluorophenyl)acetic acid formation at 2 uM after 60 mins by LC-MS/MS analysis in presence of ketoconazole; format: ADME; conditions: 1 h
CYP2C9 = assay: Upregulation of CYP2C9 mRNA expression in human hepatocytes at 0.3 to 30 uM treated every 24 hrs for 2 days measured on day 5 relative to control; format: ADME, cell-based, Hepatocyte; conditions: read-out: FC
Cytochrome P450 3A5 [7] = molecular target: T2, Cytochrome P450 3A5; assay: Drug metabolism assessed as recombinant CYP3A5 (unknown origin)-mediated 2-(4-(4-(tert-butylcarbamoyl)-2-(2-chloro-4-(1-hydroxycyclopropyl)phenylsulfonamido)phenoxy)-5-chloro-2-fluorophenyl)acetic acid formation at 10 uM after 30 mins by LC-MS/MS analysis; format: ADME; conditions: recombinant enzyme, 0.5 h

S50 [1] [µM]	Vmax [1] [pmol/min/mg]	Drug metabolism [2]	fold induction at 48 h, up to 30 µM (CYP1A2)	Drug metabolism (Cytochrome P450 3A5 [3])	Ki (Cytochrome P450 2C8) [nM]	fold induction at 48 h, up to 30 µM (CYP2B6)	Drug metabolism (Cytochrome P450 3A4)	Drug metabolism (Liver microsome)	fold induction at 48 h, up to 30 µM (CYP2C9)	Drug metabolism (Cytochrome P450 3A5 [7])	SMILES	Drug metabolism [4]	Drug metabolism [5]	Drug metabolism [6]
218.4	3.45	metabolite_detected									CC(C)(C)NC(=O)c1ccc(Oc2cc(F)c(CC(=O)O[C@@H]3O[C@H](C(=O)O)[C@@H](O)[C@H](O)[C@H]3O)cc2Cl)c(NS(=O)(=O)c2ccc(C3CC3)cc2Cl)c1			
			1.7	metabolite_detected	1100	1.4	metabolite_detected	metabolite_not_detected	1.7	metabolite_detected	CC(C)(C)NC(=O)c1ccc(Oc2cc(F)c(CC(=O)O)cc2Cl)c(NS(=O)(=O)c2ccc(C3CC3)cc2Cl)c1 [VIDUPIPRANT]	metabolite_not_detected	metabolite_detected	metabolite_detected
